Source: patent US10722519B2, “Aerosol fluoroquinolone formulations for improved pharmacokinetics” (priority 2008, dated 2020)
Where two headings read alike, the source gives them in different places.

Key:
[1] = Aerosol and IV levofloxacin in saline in normal healthy volunteers and CF subjects (serum, sputum, deconvolution); details: for Mean projected Cmax in the ELF: CF patients, ELF volume 25 ml; for AUC / Cmax / half-life / clearance: human, in vivo; for clearance: Total levofloxacin clearance, serum
Method: Safety, tolerability, and pharmacokinetics (serum, sputum, and urinary excretion) data were collected after each dose.
A weight of 1/y-observed was applied in the regression. Goodness of fit was assessed by the minimized objective function and inspection of weighted residual plots. […] Briefly, this analysis compares the appearance and elimination of drug following aerosol and intravenous doses to determine the amount of drug remaining in the lung (absorption compartment) over time. To estimate concentrations of drug in lung, amounts were divided by estimates of the epithelial lung fluid (ELF) volume (25 ml) for each subject. Noncompartmental pharmacokinetic analysis was subsequently applied to these projected concentrations of drug in the lung to determine values for AUC.
The area under the sputum concentration vs. time curve was estimated using the linear trapezoidal rule.

[2] = clinical
Method: This analysis compares the appearance and elimination of drug following aerosol and intravenous doses to determine the amount of drug remaining in the lung (absorption compartment) over time. To estimate concentrations of drug in lung, amounts were divided by estimates of the epithelial lung fluid (ELF) volume (25 ml) for each subject. Non-compartmental pharmacokinetic analysis was subsequently applied to these projected concentrations of drug in the lung to determine AUCs.

[3] = test system: P. aeruginosa; details: simulated ELF
[4] = in vivo; details: male, Sprague-Dawley, rat, in vivo, 10 mg/kg
Method: This example relates to aerosol and intravenous administration of fluoroquinolones in saline. A rat pharmacokinetic model was used to compare intravenous and pulmonary administration of fluoroquinolones. […] Doses were administered via the lateral tail vein, or to the lung just above the tracheal bifurcation using a micro-spray aerosol device (Penn Century, Philadelphia, Pa.).
Approximately 0.3 ml blood samples were taken from 2-6 rats at each timepoint via an indwelling jugular vein cannula, and collected in lithium heparin tubes. Bronchial alveolar lavage (BAL) and lung tissue were collected following euthanasia. […] Sample concentrations were determined against a standard curve.

[5] = test system: P. aeruginosa NH57388A; assay: Chronic mouse lung infection model; type: in vivo; details: mice, twice daily for 72 h
Method: Bacterial cells were harvested by centrifugation (23,000×g, 30 min, at 4° C.) and resuspended in 3-6 ml of MHB. The supernatant was collected and placed in 80° C. water-bath for 30 min. […] The precipitated alginate was collected with a sterile bacterial loop and washed several times in sterile saline. The purified alginate was then resuspended in 10 ml of sterile saline and stirred vigorously to form a homogeneous suspension. […] The bacterial suspension was diluted (1:10) in the alginate suspension to yield about 10^8 CFU/ml. […] On day 4, the mice were infected using a curved bead-tipped oral gavage attached to a 1 ml syringe while under isoflurane anesthesia.

[6] = in vivo; details: Sprague-Dawley, rat, 10 mg/kg
[7] = Mouse lung homogenate pharmacokinetics; details: IP, 20 mg/kg normalized to 60 mg/kg
Method: Mice were sacrificed at 0.08, 0.16, 0.25, 0.5, 0.75, 1.0, 2.0, 3.0, and 4.0 h after dosing and their lungs collected. […] Analytical standards (0.05 to 100 mg/L) were prepared in fresh mouse lung homogenate collected from untreated animals. […] Aliquots of the supernatant (25 μl) were injected directly onto the HPLC using a temperature-controlled autoinjector set at 10° C. Standard curves were constructed of the peak area versus standard concentration, and the data were fit using weighted linear regression (Microsoft Excel, Seattle, Wash.). […] The lung pharmacokinetic parameters were determined using WinNonlin (Pharsight, Mountain View, Calif.).

[8] = Sprague-Dawley, rat, in vivo, 10 mg/kg
[9] = in vivo; details: Sprague-Dawley, rat, 10 mg/kg; remark: listed apart in the source
[10] = serum, 5 minute IV infusion 50 mg, single healthy volunteer

C[C@H]1COc2c(N3CCN(C)CC3)c(F)cc3c(=O)c(C(=O)O)cn1c23 [Levofloxacin, levofloxacin]
Mean projected Cmax in the ELF ([1]; high dose (RDD 40 mg)): > 1000 µg/mL | Mean projected Cmax in the ELF ([1]; low dose (RDD 20 mg)): exceeded 500 μg/ml | time for which 50% of the lung dose remains in the lung ([1]; CF subjects, aerosol in saline, serum deconvolution): at least 0.5 hours | peak sputum concentrations higher than 750 mg oral dose ([1]; aerosol doses as low as 20 mg): 10 fold | AUC ([1]; 20 mg): 67100 ng·h/mL | Cmax ([1]; 20 mg): 86.2 µg/mL | half-life ([1]; 20 mg): 54 min | AUC ([1]; 40 mg): 171000 ng·h/mL | Cmax ([1]; 40 mg): 212 µg/mL | half-life ([1]; 40 mg): 78 min | clearance ([1]; 50 mg, CF subjects): 235 mL/min | clearance ([1]; 50 mg, NHV subjects): 287 mL/min | AUC ([1]; iv, 50 mg): 2500 ng·h/mL | Cmax ([1]; iv, 50 mg): 0.8 µg/mL | AUC ([1]; po, 750 mg): 93400 ng·h/mL | Cmax ([1]; po, 750 mg): 8.7 µg/mL | Vd ([2]; human, in vivo, iv): 135 L | clearance ([2]; human, in vivo, iv): 266 mL/min | A [2, 10]: 2.05 mg/L | B [2, 10]: 0.30 mg/L | V2 [2, 10]: 114.03 L | 24 h AUC ([3]; 20 mg BID): 700 mg·h/L | Cmax ([3]; 20 mg BID): 500 mg/L | 24 h AUC ([3]; 40 mg BID): 1,400 h · mg/L | Cmax ([3]; 40 mg BID): 1,000 mg/L | 24 h AUC ([3]; 80 mg BID): 2,800 h · mg/L | Cmax ([3]; 80 mg BID): 2,000 mg/L | 24 h AUC ([3]; 120 mg BID): 4,200 h · mg/L | Cmax ([3]; 120 mg BID): 3,000 mg/L | F, % from Lung vs IV [4]: 97% | MAT [4]: 0 h | AUC ([4]; inhaled or intranasal): 3000 ng·h/mL | AUC(0-inf) ([4]; inhaled or intranasal): 3700 ng·h/mL | MRT ([4]; inhaled or intranasal): 42 min | half-life ([4]; inhaled or intranasal): 30 min | AUC ([4]; iv): 1600 ng·h/mL | AUC(0-inf) ([4]; iv): 3800 ng·h/mL | MRT ([4]; iv): 42 min | half-life ([4]; iv): 30 min | log increase in bacterial counts ([5]; intraperitoneal 15 mg/kg in saline): 0.83 log | log increase in bacterial counts ([5]; intraperitoneal 30 mg/kg in saline): 0.32 log | log increase in bacterial counts ([5]; intraperitoneal 60 mg/kg in saline): 0.15 log | MRT ([6]; inhaled or intranasal): 42 min | half-life ([6]; inhaled or intranasal): 30 min | MRT ([6]; iv): 42 min | half-life ([6]; iv): 30 min | AUC (Normalized to 60 mg/kg) [7]: 12.3 mg·h/kg | Cmax (Normalized to 60 mg/kg) [7]: 18.6 mg/kg | F, % from Lung vs IV [8]: 97% | CL/F ([9]; inhaled or intranasal): 47.2 mL/min/kg | Cmax ([9]; inhaled or intranasal): 6.01 µg/mL | MRT ([9]; inhaled or intranasal): 42.6 min | bioavailability ([9]; inhaled or intranasal): 97.4% | half-life ([9]; inhaled or intranasal): 31.2 min | Cmax ([9]; iv): 5.54 µg/mL | MRT ([9]; iv): 42 min | half-life ([9]; iv): 29.4 min
